Our source for the IC50 values is patent publication US5552421A, “Leukotriene biosynthesis inhibitors” (Boehringer Ingelheim Pharmaceuticals, Inc., priority 1995, dated 1996).

In one experiment the test system is LTB4 biosynthesis in human polymorphonuclear leukocytes (PMNs). Kind of experiment: Inhibition of LTB4 biosynthesis in human polymorphonuclear leukocytes (PMNs). The note with it: Homo sapiens, Leukocyte, Table 1A, Esters; LTB4, A23187-stimulated human PMNs. Type of experiment: cell-based. How it is done:
Inhibition of LTB4, biosynthesis in human polymorphonuclear leukocytes (PMNs)
The inhibition of leukotriene biosynthesis is measured by determining whether and to what extent test compounds can inhibit LTB4 production from endogenous arachidonic acid in human peripheral blood leukocytes.
To 48-well tissue culture plates was added a solution of the test compound followed by addition of human polymorphonuclear leukocytes isolated from peripheral blood at a density of 1.5×10^6 cells/well. Culture plates were preincubated for fifteen minutes with shaking at 28° C. Cells were stimulated with calcium ionophore A23187 at a final concentration of 2.5 μM for an additional ten minutes. The reaction was terminated by the addition of an EGTA solution (10 mM final concentration)followed by centrifugation at 1500 rpm at 10° C. Supernatants were stored at -70° C. LTB4 levels were determined by RIA using a commercially available kit. Nonlinear regression analysis was used to calculate. IC50 values.
The following tables show % inhibition of LTB4 biosynthesis by compounds of the invention at test concentrations indicated, with the determined IC50 shown in μM.
As to `CCOC(=O)C(Cc1ccccc1)N(C)c1nc2ccccc2s1` (centres unmarked) [Compound 36], the IC50 was 1000 nM.
Same read-out and setting: as for `CCOC(=O)C(CCc1ccccc1)Nc1nc2ccccc2s1` (centres unmarked) [Compound 37], the figure is 520 nM; as for `CCOC(=O)C(C)(Cc1ccccc1)Nc1nc2ccccc2s1` (centres unmarked) [Compound 38], 200 nM.
On the same count and under the same terms, as for `CCOC(=O)C(C)(Cc1ccccc1)Nc1nc2ccccc2o1` (centres unmarked) [Compound 39], the figure is 76 nM.

The experiment is the same for the next values; noted with them: Homo sapiens, Leukocyte, Table 2, Amides; values with <: see footnote d, Tables 1 and 1A.
The molecule `NC(=O)[C@H](Cc1ccccc1)Nc1nc2ccccc2s1` [Compound 40] yielded a concentration for half-maximal inhibition (IC50) of 3000 nM. In other words, the single-digit micromolar range.
Turning to `CN(C)C(=O)C(Cc1ccccc1)Nc1nc2ccccc2s1` (centres unmarked) [Compound 41], the IC50 was 3000 nM.
Same read-out and setting: to `CCNC(=O)C(Cc1ccccc1)Nc1nc2ccc(C(C)C)cc2s1` (centres unmarked) [Compound 42] belongs 3000 nM; to `CON(C)C(=O)[C@H](Cc1ccccc1)Nc1nc2ccccc2o1` [Compound 43], less than 1000 nM; to `CNC(=O)[C@H](CC1CCCCC1)Nc1nc2cc(C)ccc2o1` [Compound 44, L-N-(5-Methylbenzoxazol-2-yl)cyclohexylalanine-N'-methylamide], 72 nM.
`CON(C)C(=O)[C@H](CC1CCCCC1)Nc1nc2cc(C)ccc2o1` [Compound 45] gave an IC50 of 30 nM.
Still for that read-out and setting: to `Cc1ccc2oc(N[C@@H](CC3CCCCC3)C(=O)N3CCCCC3)nc2c1` [Compound 46] belongs 190 nM.

The experiment is the same for the next values; noted with them: Homo sapiens, Leukocyte, Table 3, Phenyl; values with <: see footnote d, Table 1.
For the molecule `c1ccc(CC(Nc2nc3ccccc3s2)c2ccccc2)cc1` (centres unmarked) [Compound 47], the IC50 was 160 nM. That is a sub-micromolar value.
On the same count and under the same terms, to `c1ccc(CC(Nc2nc3ccccc3o2)c2ccccc2)cc1` (centres unmarked) [Compound 50] belongs less than 1000 nM.
On the same count and under the same terms, to `CC(C)c1ccc2oc(NC(CC3CCCCC3)c3ccccc3)nc2c1` (centres unmarked) [Compound 54] belongs 6.3 nM; to `Clc1ccc(C(CC2CCCCC2)Nc2nc3ccccc3o2)cc1` (centres unmarked) [Compound 55], 300 nM.
Same read-out and setting: as for `Cc1cccc(C(CC2CCCCC2)Nc2nc3ccccc3o2)c1` (centres unmarked) [Compound 57], the figure is 300 nM; as for `Clc1ccccc1C(CC1CCCCC1)Nc1nc2ccccc2o1` (centres unmarked) [Compound 58], 80 nM; as for `Ic1ccc2oc(NC(CC3CCCCC3)c3ccccc3)nc2c1` (centres unmarked) [Compound 59], 13 nM.
Molecule `CS(=O)(=O)Nc1ccc2oc(NC(CC3CCCCC3)c3ccccc3)nc2c1` (centres unmarked) [Compound 60] gave an IC50 of 160 nM.
For `CC(=O)Nc1ccc2oc(NC(CC3CCCCC3)c3ccccc3)nc2c1` (centres unmarked) [Compound 61], it took 76 nM to reach half-maximal inhibition (IC50).
As to `CNC(=O)Nc1ccc2oc(NC(CC3CCCCC3)c3ccccc3)nc2c1` (centres unmarked) [Compound 62], the concentration for half-maximal inhibition (IC50) is less than 1000 nM.
On the same count and under the same terms, as for `O=C(O)c1ccc2oc(NC(CC3CCCCC3)c3ccccc3)nc2c1` (centres unmarked) [Compound 63], the figure is 190 nM.
Still for that read-out and setting: as for `NC(=O)c1ccc2oc(NC(CC3CCCCC3)c3ccccc3)nc2c1` (centres unmarked) [Compound 64], the figure is less than 1000 nM; as for `CN(C)C(=O)c1ccc2oc(NC(CC3CCCCC3)c3ccccc3)nc2c1` (centres unmarked) [Compound 65], 170 nM; as for `O=C(O)c1ccc2nc(NC(CC3CCCCC3)c3ccccc3)sc2c1` (centres unmarked) [Compound 66], 220 nM.
In turn, `N#Cc1ccc2oc(NC(CC3CCCCC3)c3ccccc3)nc2c1` (centres unmarked) [Compound 67] gave an IC50 of 150 nM.
The same measure, in the same setting: as for `Fc1ccc(C(CC2CCCCC2)Nc2nc3ccccc3o2)cc1` (centres unmarked) [Compound 71], the figure is 170 nM.

The experiment is the same for the next values; noted with them: Homo sapiens, Leukocyte, Table 4, Pyridyl; values with <: see footnote d, Table 1.
`c1cncc(C(CC2CCCCC2)Nc2nc3ccccc3o2)c1` (centres unmarked) [Compound 80] came in with a concentration for half-maximal inhibition (IC50) of 55 nM.
Regarding `Cc1ccc2oc(NC(CC3CCCCC3)c3cccnc3)nc2c1` (centres unmarked) [Compound 82], the IC50 was 24 nM.
Take `Cc1ccc2oc(NC(CC3CCCCC3)c3ccncc3)nc2c1` (centres unmarked) [Compound 83]: the concentration for half-maximal inhibition (IC50) was determined as 190 nM. This IC50 is about 7.9-fold higher than that of the molecule before.
Still for that read-out and setting: to `O=[N+]([O-])c1ccc2nc(NC(CC3CCCCC3)c3cccnc3)oc2c1` (centres unmarked) [Compound 84] belongs 35 nM; to `O=[N+]([O-])c1ccc2oc(NC(CC3CCCCC3)c3cccnc3)nc2c1` (centres unmarked) [Compound 85], 24 nM.

Staying with this experiment, now noted: Leukocyte; Table 1, Esters; LTB4, A23187-stimulated human PMNs; values with < (footnote d): greater than 50% (504 [sic]) inhibition at this concentration, IC50 not characterized further.
Take `CCOC(=O)C(Cc1ccccc1)Nc1nc2ccccc2s1` (racemic) [Compound 4, DL-N-(Benzothiazol-2-yl)phenylalanine ethyl ester]: the IC50 came to 400 nM. That is a sub-micromolar value.
The molecule `CCOC(=O)C(Cc1ccc(Cl)cc1)Nc1nc2ccc(C(C)C)cc2s1` (racemic) [Compound 7, DL-N-(6-Isopropylbenzothiazol-2-yl)-4-chlorophenylalanine ethyl ester] returned an IC50 of 330 nM. This IC50 and that of the molecule before are within 1.5-fold of each other.
In turn, `CCOC(=O)C(Cc1ccc(Cl)cc1)Nc1nc2ccccc2s1` (centres unmarked) [Compound 1] displayed an IC50 of 200 nM. This IC50 is about 1.6-fold lower than that of the molecule before.
Still for that read-out and setting: to `CCOC(=O)C(Cc1ccc(F)cc1)Nc1nc2ccccc2s1` (centres unmarked) [Compound 2] belongs 330 nM; to `CCOC(=O)C(Cc1ccc(Br)cc1)Nc1nc2ccccc2s1` (centres unmarked) [Compound 3], 150 nM; to `CCOC(=O)[C@H](Cc1ccccc1)Nc1nc2ccc(C(C)C)cc2s1` [Compound 6], 250 nM.
Still for that read-out and setting: to `COC(=O)[C@H](Cc1ccccc1)Nc1nc2ccc(C(C)C)cc2s1` [Compound 8] belongs 140 nM; to `CCOC(=O)C(Cc1ccc(Cl)cc1)Nc1nc2ccc(OC)cc2s1` (centres unmarked) [Compound 9], 230 nM.
Turning to `COC(=O)[C@@H](Cc1ccccc1)Nc1nc2ccc(C(C)C)cc2s1` [Compound 10], the IC50 worked out at 650 nM.
The same measure, in the same setting: as for `CCCCc1ccc2nc(NC(Cc3ccc(Cl)cc3)C(=O)OCC)sc2c1` (centres unmarked) [Compound 11], the figure is 170 nM; as for `CCOC(=O)[C@H](Cc1ccccc1)Nc1nc2ccc(CC)cc2s1` [Compound 12], 240 nM.
Still for that read-out and setting: as for `CC(C)(C)OC(=O)[C@H](Cc1ccccc1)Nc1nc2ccccc2s1` [Compound 13], the figure is 730 nM; as for `CCOC(=O)[C@H](Cc1ccccc1)Nc1nc2cc(CC)ccc2s1` [Compound 14], 9 nM.
Still for that read-out and setting: as for `CCOC(=O)[C@H](CC1CCCCC1)Nc1nc2cc(CC)ccc2s1` [Compound 15], the figure is 27 nM.
The molecule `CCOC(=O)[C@H](CC1CCCCC1)Nc1nc2ccccc2s1` [Compound 16] gave an IC50 of 6 nM.
On to `CCOC(=O)[C@H](Cc1ccccc1)Nc1nc2ccccc2o1` [Compound 17], for which the concentration for half-maximal inhibition (IC50) is 150 nM.
Same read-out and setting: as for `CCOC(=O)[C@@H](Cc1ccccc1)Nc1nc2ccccc2o1` [Compound 18], the figure is 1500 nM; as for `CCOC(=O)[C@H](Cc1ccccc1)Nc1nc2cc(C(C)C)ccc2o1` [Compound 19], 0.52 nM.
On the same count and under the same terms, to `CCOC(=O)[C@H](Cc1ccccc1)Nc1nc2ccc(C(C)C)cc2o1` [Compound 20] belongs 220 nM; to `COC(=O)[C@H](CC1CCCCC1)Nc1nc2ccccc2o1` [Compound 21], 6.4 nM; to `COC(=O)[C@@H](CC1CCCCC1)Nc1nc2ccccc2o1` [Compound 22], 100 nM.
The same measure, in the same setting: as for `COC(=O)[C@H](CC1CCCCC1)Nc1nc2cc(C(C)C)ccc2o1` [Compound 23], the figure is 1 nM; as for `COC(=O)[C@H](CC1CCCCC1)Nc1nc2cc(C)ccc2o1` [Compound 24], 1.7 nM.
On to `Cc1ccc2oc(N[C@@H](CC3CCCCC3)C(=O)OC(C)(C)C)nc2c1` [Compound 25], for which the IC50 is less than 300 nM.
Same read-out and setting: as for `COC(=O)[C@@H](CC1CCCCC1)Nc1nc2cc(C)ccc2o1` [Compound 26], the figure is 16 nM; as for `CCOC(=O)C(Cc1csc(C)n1)Nc1nc2cc(OC)ccc2o1` (centres unmarked) [Compound 27], less than 300 nM; as for `CCOC(=O)C(Cc1nccs1)Nc1nc2cc(Cl)ccc2o1` (centres unmarked) [Compound 28], less than 300 nM.
Still for that read-out and setting: to `CCOC(=O)C(Cc1csc(C)n1)Nc1nc2cc(Cl)ccc2o1` (centres unmarked) [Compound 29] belongs 87 nM; to `CCOC(=O)C(Cc1cccnc1)Nc1nc2cc(C(C)C)ccc2o1` (centres unmarked) [Compound 30], 190 nM; to `CCOC(=O)C(Cc1ccncc1)Nc1nc2cc(C(C)C)ccc2o1` (centres unmarked) [Compound 31], less than 100 nM.
Same read-out and setting: as for `CCOC(=O)C(Cc1csc(C)n1)Nc1nc2cc(C(C)C)ccc2o1` (centres unmarked) [Compound 33], the figure is less than 30 nM.

The experiment is the same for the next values; noted with them: Table 4, Pyridyl; values with <: see footnote d, Table 1.
With `Cc1ccc2oc(NC(CC3CCCCC3)c3ccccn3)nc2c1` (single isomer, unassigned) [Compound 87], the IC50 is 1.3 nM.
Same read-out and setting: as for `Cc1ccc2oc(NC(CC3CCCCC3)c3ccccn3)nc2c1` (single isomer, unassigned) [Compound 88], the figure is 45 nM; as for `Cc1ccc2oc(NC(CC3CCCCC3)c3cccnc3)nc2c1` (single isomer, unassigned) [Compound 89], 16 nM.
For `Cc1ccc2oc(NC(CC3CCCCC3)c3cccnc3)nc2c1` (single isomer, unassigned) [Compound 90], the IC50 was less than 1000 nM.
Molecule `Fc1ccc(CC(Nc2nc3cc(Cl)ccc3o2)c2ccccn2)cc1` (single isomer, unassigned) [Compound 118] gave an IC50 of 10 nM.
The molecule `Fc1ccc(CC(Nc2nc3cc(Cl)ccc3o2)c2ccccn2)cc1` (single isomer, unassigned) [Compound 119] gave an IC50 of 320 nM.

Still in this experiment, the particulars now being: Table 10, Oxazolopyridines; values with <: see footnote d, Table 1.
As to `Cc1ccc2oc(NC(CC3CCCCC3)c3ccccn3)nc2n1` (single isomer, unassigned) [Compound 166], the IC50 was 15 nM.
Same read-out and setting: to `Cc1ccc2oc(NC(CC3CCCCC3)c3ccccn3)nc2n1` (single isomer, unassigned) [Compound 167] belongs 170 nM.

As usually defined, the IC50 is the concentration that gives 50% inhibition.
